Results as given in US12716903B2, “Microfluidic chip-based, universal coagulation assay” (Perosphere Technologies Inc., priority 2014, dated 2026).

System: blood
Assay: Blood clotting time on microfluidic closed device chip, by IR light transmission and impedance
Set-up: species or system patient
Settings: PER977 added to blood sample containing edoxaban, both at 300 ng/mL; IR and impedance curves; room temperature
Experimental: For detection of clotting through measurement of impedances, a sample is loaded into the chip, the chip is inserted into its reader, and the pogo pins connecting to the internal impedance electrodes connected via Kelvin clip leads to a QuadTech 1920 LCR meter. The magnitude and the phase of the complex impedance of the blood sample were recorded at 15 second intervals. […] The peaks or plateaus indicated a measure for the clotting time.
For optical clot detection, IR LED and photodiode are inserted into their reader parts as described above. A blood sample is pipetted into the chip and the chip placed into the reader. The sample is continuously illuminated with IR light at 1,300 nm. At time intervals of typically 100 ms, the voltage drop across a 1 MOhm resistor caused by the photocurrent of the photodiode was recorded. Voltages typically measured several volts. Clotting of the sample caused the transmitted light and the photocurrent to vary over time. Characteristic peaks of the transmitted light curve indicated a measure for the clotting time.
Blood was harvested from a patient using commercially available lancing devices. 10 μL of blood were obtained and pipetted into an Eppendorf tube. […]
Edoxaban is a commercially available anticoagulant. […] The chip was inserted into its reader, and both IR light and impedance measurements were immediately recorded at room temperature (approximately 27° C.). […]

In the case of `N=C(N)NCCC[C@H](N)C(=O)NCCCN1CCN(CCCNC(=O)[C@@H](N)CCCNC(=N)N)CC1` [PER977, ciraparantag], the “characteristic peak indicative of the sample clotting time” value is reported as 2 min and the “occurrence of a local minimum around 12 minutes” value is reported as “suppresses the occurrence of a local minimum”.
